Measurements taken from patent US9783495B2, “Treatment for lipodystrophy” (Cadila Healthcare Limited, priority 2011, dated 2017).

Tests used:
[1] = test system: HIV-infected men with central obesity and low testosterone levels; settings: transdermal gel 10 g daily, 24 weeks, cited from earlier work
Dyslipidemia subjects = assay: Phase II studies in Dyslipidemia subjects; type: in vivo, human; settings: 4 mg once daily
Description: This was exploratory proof of concept study designed to assess the proof of safety and efficacy in intended population. […] Based upon these observations 4 mg once daily in fasted condition was selected for present study

[2] = test system: subjects with hypertriglyceridemia in HIV associated lipodystrophy; assay: Prospective, multi-centric, open-label, single arm study of 4 mg of compound of formula (I) in hypertriglyceridemia in HIV associated lipodystrophy; type: in vivo, human; settings: 4 mg oral once daily; for Homa of Insulin Resistance for C-Peptide, Mean ± SD: Visit 1 mean 1.59 ± 0.82; for Insulin (fasting), Mean ± SD: Visit 1 mean 9.21 ± 6.26; for HDL Cholesterol, Mean ± SD: Visit 1 mean 35.27 ± 7.85; for HOMA of Beta Cell Function for Insulin, Mean ± SD: Visit 1 mean 107.82 ± 52.85; for TG, Mean ± SD: Visit 1 mean 301.68 ± 86.99; for Homa of Insulin Resistance for C-Peptide, Median: Visit 1 median 1.40; for Insulin (fasting), Median: Visit 1 median 7.40; for HDL Cholesterol, Median: Visit 1 median 34.52; for HOMA of Beta Cell Function for Insulin, Median: Visit 1 median 97.25; for TG, Median: Visit 1 median 275.45
Source text: After obtaining informed written consent, subjects with hypertriglyceridemia in HIV associated lipodystrophy, on treatment with HAART for at least 18 months and satisfying the inclusion and exclusion criteria were enrolled in the study.
The primary efficacy endpoint was to assess the percent change in TG levels from baseline to Week 6 and Week 12. The secondary efficacy endpoint was the assessment of LDL, VLDL, HDL, Non HDL cholesterol, Total cholesterol, Apo Al, Apo B, and C-peptide and fasting insulin for HOMA beta and HOMA IR.
For the efficacy endpoints, treatment effect was evaluated using an analysis of variance (ANOVA) model with factors for baseline and treatment. Treatment effects were estimated using the least-square means (LSM) and 95% confidence intervals (CIs) from the ANOVA model. Statistical significance was defined as a two-sided p-value <0.05. All other secondary endpoints were analyzed using appropriate statistical methods.
Subjects who satisfied all of the following criteria were eligible for enrolment in the study: • 1. Males and females aged 18-65 years. • 2. Confirmed diagnosis of HIV1 and on HAART for at least 18 months. • 3. On stable ART regimen for at least 8 weeks prior to inclusion in the study and ART regimen not expected to change in next 3 months. • 4. Subjects clinically diagnosed as HIV lipodystrophy (at least 1 moderate or severe lipodystrophy feature identified by doctor and patient, except isolated abdominal obesity) • 5. Triglycerides>200 to 500 mg %. • 6. CD4 count of>50/mm^3 • 7. Subject who had given informed consent for participation in this trial. Treatments Treatments Administered […]
The primary efficacy endpoint was to determine the percent change in TG levels from baseline to Week 6 and Week 12.
The secondary efficacy endpoint was to determine the percent change in LDL, VLDL, HDL, total cholesterol, non-HDL Cholesterol (measured value), Apo Al, and Apo B, C-peptide and fasting insulin for HOMA beta and HOMA IR levels from baseline to Week 6 and Week 12.
The primary efficacy variable was the reduction in TG at Week 6 and Week 12 of the treatment period compared with baseline. The change from baseline was determined as the difference between the means for the treatment period (Weeks 6/Weeks 12) and the baseline.
Intent-to-treat (ITT) and/or Per Protocol (PP) analysis were carried out for the study. The PP analysis was considered definitive while the ITT analysis was considered supportive during the trial analysis.
One subject identified as EHT004 in the study, a person, was reported with abnormally low levels of HDL (3.95 mg/L) and LDL (6.25 mg/L) at Visit 1. Though this subject completed the study and was assessable for efficacy, it was decided to exclude this subject from the efficacy analyses. Therefore a total of 49 subjects were analyzed for efficacy.

[3] = Phase I study, effect of food on absorption; type: in vivo, human
[4] = Visit 3 (Week 6), p <0.0001, listed as COMPOUND OF FORMULA(I)
[5] = Visit 4 (Week 12), p <0.0001, listed as COMPOUND OF FORMULA(I)

## C[C@]12CC[C@H]3[C@@H](CCC4=CC(=O)CC[C@@]43C)[C@@H]1CC[C@@H]2O [testosterone]
[1]; placebo +2.3%, no statistically significant difference
  change in VAT: +0.9%
[1]; placebo +3.1%, statistically significant
  change in limb fat: −10.1%
[1]; placebo +4.3%, statistically significant
  change in abdominal fat: −1.5%
[1]; placebo +4.6%, statistically significant
  change in trunk fat: −9.9%
[1]; placebo +8.1%, statistically significant
  change in abdominal subcutaneous adipose tissue (SAT): −7.2%

## (S)-α-Ethoxy-4-[2-[-methyl-5-[4-(methylthio)phenyl]-1H-pyrrol-1-yl]ethoxy] benzenepropanoic acid magnesium salt [compound of formula (I)]
Dyslipidemia subjects
  efficacy: effective
  tolerability: well tolerated
[2]; Visit 3 (Week 6)
  HDL Cholesterol, Maximum: 73.50 mg/dL
  HDL Cholesterol, Minimum: 20.13 mg/dL
  HOMA of Beta Cell Function for Insulin, Maximum: 348.00
  HOMA of Beta Cell Function for Insulin, Minimum: 34.90
  Homa of Insulin Resistance for C-Peptide, Maximum: 3.60
  Homa of Insulin Resistance for C-Peptide, Minimum: 0.90
  Insulin (fasting), Maximum: 26.82 μu/mL
  Insulin (fasting), Minimum: 2.14 μu/mL
  TG, Maximum: 631.08 mg/dL
  TG, Minimum: 42.61 mg/dL
  Homa of Insulin Resistance for C-Peptide, Mean ± SD: 1.86 ± 0.77
  Insulin (fasting), Mean ± SD: 10.42 ± 5.74 μu/mL
  HDL Cholesterol, Mean ± SD: 44.44 ± 14.04 mg/dL
  HOMA of Beta Cell Function for Insulin, Mean ± SD: 136.41 ± 76.00
  TG, Mean ± SD: 172.81 ± 106.30 mg/dL
  Homa of Insulin Resistance for C-Peptide, Median: 1.70
  Insulin (fasting), Median: 8.35 μu/mL
  HDL Cholesterol, Median: 43.36 mg/dL
  HOMA of Beta Cell Function for Insulin, Median: 116.50
  TG, Median: 147.68 mg/dL
[2]; Visit 3 (Week 6), p 0.0010
  HOMA of Beta Cell Function for Insulin, % Change from Visit 1 (LS Mean ± SE): 52.50±14.94%
[2]; Visit 3 (Week 6), p 0.0010, listed as COMPOUND OF FORMULA(I)
  HOMA of Beta Cell Function for Insulin, % Change from Visit 1 (LS Mean ± SE): 52.50 ± 14.94%
[2]; Visit 3 (Week 6), p 0.0015
  HOMA of Beta Cell Function for Insulin, Change from Visit 1 (LS Mean ± SE): 29.55 ± 8.76
[2]; Visit 3 (Week 6), p <0.0001
  HDL Cholesterol, % Change from Visit 1 (LS Mean ± SE): 29.92±5.73%
  HDL Cholesterol, Change from Visit 1 (LS Mean ± SE): 9.17 ± 1.99 mg/dL
  Homa of Insulin Resistance for C-Peptide, % Change from Visit 1 (LS Mean ± SE): 27.87±4.22%
  Homa of Insulin Resistance for C-Peptide, Change from Visit 1 (LS Mean ± SE): 0.27 ± 0.05
  Insulin (fasting), % Change from Visit 1 (LS Mean ± SE): 23.71±3.55%
  Insulin (fasting), Change from Visit 1 (LS Mean ± SE): 1.21 ± 0.22 μu/mL
  TG, % Change from Visit 1 (LS Mean ± SE): -40.98±4.89%
  TG, Change from Visit 1 (LS Mean ± SE): -128.87 ± 14.96 mg/dL
[2]; [4]
  HDL Cholesterol, % Change from Visit 1 (LS Mean ± SE): 29.92 ± 5.73%
  Homa of Insulin Resistance for C-Peptide, % Change from Visit 1 (LS Mean ± SE): 27.87 ± 4.22%
  Insulin (fasting), % Change from Visit 1 (LS Mean ± SE): 23.71 ± 3.55%
  TG, % Change from Visit 1 (LS Mean ± SE): −40.98 ± 4.89%
[2]; Visit 4 (Week 12)
  HDL Cholesterol, Maximum: 82.89 mg/dL
  HDL Cholesterol, Minimum: 17.61 mg/dL
  HOMA of Beta Cell Function for Insulin, Maximum: 273.30
  HOMA of Beta Cell Function for Insulin, Minimum: 9.80
  Homa of Insulin Resistance for C-Peptide, Maximum: 3.60
  Homa of Insulin Resistance for C-Peptide, Minimum: 1.10
  Insulin (fasting), Maximum: 24.29 μu/mL
  Insulin (fasting), Minimum: 5.93 μu/mL
  TG, Maximum: 387.69 mg/dL
  TG, Minimum: 46.88 mg/dL
  Homa of Insulin Resistance for C-Peptide, Mean ± SD: 2.15 ± 0.62
  Insulin (fasting), Mean ± SD: 11.40 ± 4.45 μu/mL
  HDL Cholesterol, Mean ± SD: 46.14 ± 14.84 mg/dL
  HOMA of Beta Cell Function for Insulin, Mean ± SD: 137.56 ± 46.11
  TG, Mean ± SD: 166.97 ± 89.17 mg/dL
  Homa of Insulin Resistance for C-Peptide, Median: 2.10
  Insulin (fasting), Median: 10.18 μu/mL
  HDL Cholesterol, Median: 47.70 mg/dL
  HOMA of Beta Cell Function for Insulin, Median: 125.60
  TG, Median: 145.91 mg/dL
[2]; Visit 4 (Week 12), p <0.0001
  HDL Cholesterol, % Change from Visit 1 (LS Mean ± SE): 34.56±6.13%
  HDL Cholesterol, Change from Visit 1 (LS Mean ± SE): 10.87 ± 2.08 mg/dL
  HOMA of Beta Cell Function for Insulin, % Change from Visit 1 (LS Mean ± SE): 45.64±6.22%
  HOMA of Beta Cell Function for Insulin, Change from Visit 1 (LS Mean ± SE): 30.78 ± 4.25
  Homa of Insulin Resistance for C-Peptide, % Change from Visit 1 (LS Mean ± SE): 58.29±5.74%
  Homa of Insulin Resistance for C-Peptide, Change from Visit 1 (LS Mean ± SE): 0.56 ± 0.05
  Insulin (fasting), % Change from Visit 1 (LS Mean ± SE): 47.10±4.21%
  Insulin (fasting), Change from Visit 1 (LS Mean ± SE): 2.20 ± 0.21 μu/mL
  TG, % Change from Visit 1 (LS Mean ± SE): -45.11±3.60%
  TG, Change from Visit 1 (LS Mean ± SE): -134.71 ± 10.78 mg/dL
[2]; [5]
  HDL Cholesterol, % Change from Visit 1 (LS Mean ± SE): 34.56 ± 6.13%
  HOMA of Beta Cell Function for Insulin, % Change from Visit 1 (LS Mean ± SE): 45.64 ± 6.22%
  Homa of Insulin Resistance for C-Peptide, % Change from Visit 1 (LS Mean ± SE): 58.29 ± 5.74%
  Insulin (fasting), % Change from Visit 1 (LS Mean ± SE): 47.10 ± 4.21%
  TG, % Change from Visit 1 (LS Mean ± SE): −45.11 ± 3.60%
[2]; Week 6, p 0.0104
  increase in the HOMA of Beta-cell function derived from C-peptide from baseline: 68.25±25.58
[2]; Week 6, p <0.0001
  HOMA of insulin resistance derived from insulin, percent change from baseline: 29.10±3.94%
[2]; Week 6 and Week 12, p-values 0.3963 and 0.4646
  change in the non-HDL cholesterol levels from baseline: no statistically significant change
[2]; Week 12, p <0.0001
  HOMA of insulin resistance derived from insulin, percent change from baseline: 42.65±3.79%
  increase in the HOMA of Beta-cell function derived from C-peptide from baseline: 71.67±16.20
[3]
  effect of food on absorption: food significantly affects absorption
